Source: paper PMC5379102, “Sequence-selective encapsulation and protection of long peptides by a self-assembled Fe^II8L6 cubic cage” (Nature Communications, 2017)
“Also recorded” adds a separate entry of the source. Like-named read-outs stand apart in the source and are kept apart here. Non-standard residues stand in square brackets, D forms with d. Residues, ends and D or L forms follow the SMILES beside them. No end group written: not given here. *: point of attachment. Dnp = O=[N+]([O-])c1ccc(*)c([N+](=O)[O-])c1; 2Abz = Nc1ccccc1C(=O)O

Key:
[1] = target: cage 1 (Fe^II8L6 cubic cage with zinc porphyrin faces); assay: Ultraviolet-visible titration of cage 1 with guest (host-guest binding)
Experimental: Ultraviolet–visible absorption spectroscopy measurements were performed using a Perkin Elmer Lambda 750 UV-Vis-NIR spectrophotometer fitted with a PTP-1 Peltier temperature controller accessory. Spectra were obtained in double beam mode using only the (front) analyte beam to record spectra, with air in the (rear) reference path. Samples were analysed using quartz cuvettes with optical path lengths of 1 mm. Unless otherwise specified, 417 nm was the wavelength selected to follow the binding of the guest.
A solution of 1 in CH3CN:H2O (1:1) (250 μl, 1.5 μM) or pure acetonitrile was transferred to a cuvette. Small aliquots of the guest's solution were titrated into the cuvette. The experiment was performed at room temperature. Each experiment was repeated three times (Supplementary Figs 31–46 and Supplementary Methods). Data obtained from the ultraviolet–visible titration were then fitted using nonlinear analysis with DynaFit programme (Biokin Software)[30] to the binding equation derived for either 1:1 model (porphyrin:guest with one imidazole group) or 2:1 model (porphyrin:guest with two imidazole groups), except in the case of G7. G7 contains two histidine amino acids in consecutive positions, therefore the distance between the imidazole rings of these two amino acids is too short to allow the interaction with two porphyrins at the same time. In this case, the binding model was 2:1 peptide:cage.
The dilution effect was corrected by multiplying the observe intensity for the dilution factor before the fitting. The error reported for each affinity value is the formal standard error calculated by DynaFit[30] as the square root of the diagonal elements of the variance–covariance matrix. This s.e. gives an idea of the precision of the fitted value.
The experimental data obtained using UV-Vis spectroscopy for each guest was fitted using
nonlinear analysis with DynaFit program (Biokin Software)2 to the binding equation derived
for 1:1 model porphyrin:imidazole group (non-cooperative model). […]

[2] = test system: trypsin; assay: Trypsinization experiments (peptide hydrolysis by trypsin, with or without 1); type: in vitro ADME
Experimental: (§1) Finally, we envisaged that the closed cubic architecture of 1 could protect its histidine-containing peptide guests from enzymatic degradation. For these experiments we used the protease trypsin, which cleaves exclusively on the C-terminal side of lysine and arginine residues. We initially examined G7 as a substrate. […] The incubation of a 20 μM solution of G8 with 0.3 equiv. of trypsin in a mixture of acetonitrile and phosphate buffer (pH=7.5) for 30 min led to the cleavage of G8 in 76% yield (Supplementary Fig. 49). When the same reaction was run in the presence of 0.6 equiv. of 1 (2:1 binding stoichiometry), the extent of cleavage was only 9% (Supplementary Fig. 50). The low degree of enzymatic degradation observed is consistent with the 9 μM dissociation constant of the adduct between 1 and G8, which implies the presence of a small amount of free peptide under the reaction conditions. Importantly, when the same experiment was carried out with a non-binding G9 in place of G8, with or without 1, quantitative G9 cleavage was observed (Supplementary Figs 52 and 53). In a further test, we treated a mixture of both peptides and 1 with trypsin, and incubated the mixture under identical conditions. In this case almost complete selectivity was observed.
(§2) Trypsinization reactions were followed by analytical RP-HPLC with an Agilent 1,100 series LC using an Eclipse XDB-C18 analytical column (3 × 150 mm, 3.5 μm). Standard conditions for analytical RP-HPLC consisted on a linear gradient from 0 to 10% of solvent B in 5 min, it then increased from 10 to 70% in 30 min at a flow rate of 1.0 ml min^−1 (A: water with 0.1% trifluoroacetic acid (TFA), B: acetonitrile with 0.1% TFA); 55 μl of solution was injected to the column each time. Compounds were detected by ultraviolet absorption and subsequently characterized by electrospray ionization (ESI) (Supplementary Figs 48–56).
(§3) The samples were prepared in 200 μl solution (40% CH3CN, 50% phosphate buffer and 10% H2O; phosphate buffer: 0.1 M, pH 7.5, 0.2 M NaCl). The concentration of the solution components were: peptides (G8 and G9) 20 μM, trypsin 6 μM and 1 12 μM. However, not all components were present in each sample, as noted in the main text. The reaction mixtures were stirred at room temperature for 30 min. It was observed that longer reaction times cause degradation of 1 due to the high concentration of NaCl in the phosphate buffer. After this time, H2O (200 μl) and acetic acid (8 μl) were added to quench the reaction. In the case of the control experiments with free Zn porphyrins, the concentration of the porphyrin was 72 μM.

[3] = as above; type: in vitro ADME; settings: isolated enzyme trypsin; peptide 20 μM, trypsin 6 μM (0.3 equiv.), 40% CH3CN / 50% phosphate buffer (0.1 M, pH 7.5, 0.2 M NaCl) / 10% H2O, room temperature, 30 min, RP-HPLC UV; read-out: cleavage by trypsin, single peptide, no 1
Experimental: as §1, §2, §3

[4] = Solubility observations; type: physicochemical
Experimental: In a J-Young NMR tube porphyrin A (4 mg, 3.3 μmol, 6 equiv.; Supplementary Figs 1–4 and Supplementary Methods), iron(II) triflate (1.5 mg, 4.4 μmol, 8 equiv.) and 5,6,7,8-tetrahydronaphthalen-2-amine B (1.9 mg, 13 μmol, 24 equiv.) were suspended in [D7]DMF (400 μl) and [D3]MeCN (100 μl). The solution was deoxygenated by three freeze-pump-thaw cycles, the tube was sealed, and heated in the oil bath for 8 h at 70 °C. After this time, the solution was opened to air and cooled to room temperature. […] The suspension was centrifuged and the solvent above the solid was removed. The purple solid was washed twice with chloroform (3 ml) and partially dried under nitrogen. The solid was dissolved in acetonitrile (0.5 ml) after drying with nitrogen. 1 (Supplementary Figs 5–12) was not soluble in pure water, but it is soluble in a 1:1 acetonitrile:water mixture (1 mg ml^−1).

[5] = test system: cage 1 (Fe^II8L6 cubic cage with zinc porphyrin faces); assay: Host-guest chemistry studied by 1H NMR titration; type: binding; settings: shifts of β-pyrrolic protons of 1
Description: We used 1-methylimidazole (G1) as an initial probe, following its binding by ^1H NMR spectroscopy. Due to the large cavity, only slight upfield shifts of the signals of the β-pyrrolic protons of 1 were observed following the addition of G1. […] However, when a 1:1 mixture of water:acetonitrile was used, it was necessary to add 70 equivalents to achieve saturation (Supplementary Fig. 27). We infer the weaker interaction in the presence of water to be due to competing hydrogen bonding between water and imidazole.
A solution of 1 (0.5 ml) was prepared in a mixture of CD3CN:D2O (1:1) or in pure CD3CN and was transferred to a J-Young NMR tube. Aliquots of the guest were added in the same mixture of solvents. The NMR spectrum was recorded after each addition and the sample was mixed thoroughly before each measurement (Supplementary Figs 26–30).

[6] = 1:1 acetonitrile:water, 20 °C, 1 at 1.5 μM, UV-Vis at 417 nm, non-cooperative 1:1 imidazole (or thiazole):porphyrin model, except G7 (2:1 peptide:1), DynaFit fit, ± formal standard error, repeated three times
[7] = peptide 20 μM, trypsin 6 μM, 1 12 μM, 40% CH3CN / 50% phosphate buffer (0.1 M, pH 7.5, 0.2 M NaCl) / 10% H2O, room temperature, 30 min, RP-HPLC UV
[8] = 1:1 acetonitrile:water, 20 °C, 1 at 1.5 μM, UV-Vis at 417 nm, non-cooperative 1:1 imidazole (or thiazole):porphyrin model, except G7 (2:1 peptide:1), DynaFit fit, ± formal standard error, repeated three times, read-out: Kd (μM) in CD3CN:H2O (1:1)

## CC[C@H](C)[C@H](NC(=O)CNC(=O)c1ccccc1N)C(=O)N[C@H](C(=O)N[C@@H](CCCNC(=N)N)C(=O)N[C@@H](C)C(=O)N[C@@H](CCCCNc1ccc([N+](=O)[O-])cc1[N+](=O)[O-])C(=O)O)C(C)C [Guest G9, Abz-NH-G-I-V-R-A-K(Dnp)-OH] (H-[2Abz]GIVRAK(Dnp)-OH)
[1]; [6]
  Kd (μM) in CD3CN:H2O (1:1): no binding interaction; also recorded: not observed to interact
[2]; free A or water-soluble Zn-tetrakis(4-sulfonatophenyl)porphyrin 72 μM, peptide 20 μM, trypsin 6 μM, pH 7.5, 30 min
  hydrolysis by trypsin in the presence of free Zn porphyrin: unaffected
[2]; peptide 20 μM, trypsin 6 μM (0.3 equiv.), 40% CH3CN / 50% phosphate buffer (0.1 M, pH 7.5, 0.2 M NaCl) / 10% H2O, room temperature, 30 min, RP-HPLC UV
  cleavage by trypsin, single peptide, no 1: quantitative
[2]; [7]
  cleavage by trypsin, single peptide, in the presence of 0.6 equiv. of 1: quantitative

## H-SSWGHVGKYVHGWSHVS-OH [Guest G8]
[1]; [8]
  Kd: 9 ± 2 µM
[1]; in 1:1 acetonitrile:water
  times lower affinity than G7: 100
[3]
  metabolised at 0.5 h: 76%
[2]; both peptides 20 μM, trypsin 6 μM, 1 12 μM, 40% CH3CN / phosphate buffer pH 7.5, room temperature, 30 min, RP-HPLC UV
  yield of cleavage by trypsin, mixture of G8 and G9, 0.6 equiv of 1: 11%
[2]; [7]
  cleavage by trypsin, single peptide, in the presence of 0.6 equiv. of 1: 9%

## CC[C@H](C)[C@H](NC(=O)[C@@H](N)CCC(=O)O)C(=O)N[C@@H](CC(C)C)C(=O)N[C@@H](CC(=O)O)C(=O)N[C@H](C(=O)N1CCC[C@H]1C(=O)N[C@@H](CO)C(=O)N[C@H](C(=O)O)[C@@H](C)O)C(C)C [Guest G10, H2N-E-I-L-D-V-P-S-T-OH]
[1]; [6]
  Kd (μM) in CD3CN:H2O (1:1): no binding interaction; also recorded: not observed to interact

## VFQFLGKIIHHVGNFVHGFSHVF [Guest G7, Clavanin A]
[1]; 1:1 CH3CN:H2O, 20 °C, 1 at 1.5 µM (G7 3 µM)
  equivalents of guest that saturate the cage (UV-Vis): two
[1]; 1:1 CH3CN:H2O, 20 °C, 1 at 1.5 µM (Supplementary Figure 43), 2:1 peptide:1 model, read-out: Kd, titration at 1.5 µM cage
  Kd: 0.06 ± 0.05 µM
[1]; [8]
  Kd: 0.08 ± 0.02 µM
[4]; trypsinization conditions
  solubility at neutral pH: low solubility

## Cn1ccnc1 [Guest G1, 1-methylimidazole]
[1]; [8]
  Kd: 900 ± 70 µM
[1]; pure acetonitrile, 20 °C, 1 at 1.5 μM, UV-Vis at 417 nm, non-cooperative 1:1 imidazole:porphyrin model, DynaFit fit, ± formal standard error, repeated three times, read-out: Kd (μM) in CD3CN
  Kd: 30 ± 1 µM
[5]; in 1:1 water:acetonitrile
  equivalents of guest at saturation (1H NMR): 70 equivalents
[5]; in acetonitrile
  equivalents of guest at saturation (1H NMR): seven

## c1cscn1 [thiazole]
[1]; [8]
  Kd: 1000 ± 200 µM

## tetrakis(formylpyridine)porphyrin A
[4]; in either water or acetonitrile
  solubility in water or acetonitrile: not observed to dissolve
